# Assay results as given in BigSolDB 2.1.
smiles,measurement,setting,value
O=C(O)Cc1ccccc1[N+](=O)[O-],solubility (mole fraction),"in 1,4-dioxane, 288.15 K",0.0461
same,solubility (mole fraction),"in 1,4-dioxane, 293.15 K",0.0535
same,solubility (mole fraction),"in 1,4-dioxane, 298.15 K",0.0618
same,solubility (mole fraction),"in 1,4-dioxane, 303.15 K",0.0732
same,solubility (mole fraction),"in 1,4-dioxane, 308.15 K",0.0853
same,solubility (mole fraction),"in 1,4-dioxane, 313.15 K",0.1
same,solubility (mole fraction),"in 1,4-dioxane, 318.15 K",0.118
same,solubility (mole fraction),"in 1,4-dioxane, 323.15 K",0.139
same,solubility (mole fraction),"in 1,4-dioxane, 328.15 K",0.162
same,solubility (mole fraction),"in DMF, 283.15 K",0.18
same,solubility (mole fraction),"in DMF, 288.15 K",0.202
same,solubility (mole fraction),"in DMF, 293.15 K",0.222
same,solubility (mole fraction),"in DMF, 298.15 K",0.249
same,solubility (mole fraction),"in DMF, 303.15 K",0.277
same,solubility (mole fraction),"in DMF, 308.15 K",0.308
same,solubility (mole fraction),"in DMF, 313.15 K",0.338
same,solubility (mole fraction),"in DMF, 318.15 K",0.371
same,solubility (mole fraction),"in DMF, 323.15 K",0.406
same,solubility (mole fraction),"in DMF, 328.15 K",0.445
same,solubility (mole fraction),"in acetonitrile, 283.15 K",0.0143
same,solubility (mole fraction),"in acetonitrile, 288.15 K",0.016
same,solubility (mole fraction),"in acetonitrile, 293.15 K",0.0184
same,solubility (mole fraction),"in acetonitrile, 298.15 K",0.0219
same,solubility (mole fraction),"in acetonitrile, 303.15 K",0.0255
same,solubility (mole fraction),"in acetonitrile, 308.15 K",0.0304
same,solubility (mole fraction),"in acetonitrile, 313.15 K",0.0365
same,solubility (mole fraction),"in acetonitrile, 318.15 K",0.0437
same,solubility (mole fraction),"in acetonitrile, 323.15 K",0.0515
same,solubility (mole fraction),"in acetonitrile, 328.15 K",0.0604
same,solubility (mole fraction),"in cyclohexane, 283.15 K",8.88e-06
same,solubility (mole fraction),"in cyclohexane, 288.15 K",1.22e-05
same,solubility (mole fraction),"in cyclohexane, 293.15 K",1.65e-05
same,solubility (mole fraction),"in cyclohexane, 298.15 K",2.23e-05
same,solubility (mole fraction),"in cyclohexane, 303.15 K",2.94e-05
same,solubility (mole fraction),"in cyclohexane, 308.15 K",3.79e-05
same,solubility (mole fraction),"in cyclohexane, 313.15 K",4.9e-05
same,solubility (mole fraction),"in cyclohexane, 318.15 K",6.35e-05
same,solubility (mole fraction),"in cyclohexane, 323.15 K",8.34e-05
same,solubility (mole fraction),"in cyclohexane, 328.15 K",0.000108
same,solubility (mole fraction),"in ethanol, 283.15 K",0.0273
same,solubility (mole fraction),"in ethanol, 288.15 K",0.0317
same,solubility (mole fraction),"in ethanol, 293.15 K",0.0367
same,solubility (mole fraction),"in ethanol, 298.15 K",0.0432
same,solubility (mole fraction),"in ethanol, 303.15 K",0.0516
same,solubility (mole fraction),"in ethanol, 308.15 K",0.0627
same,solubility (mole fraction),"in ethanol, 313.15 K",0.0743
same,solubility (mole fraction),"in ethanol, 318.15 K",0.0878
same,solubility (mole fraction),"in ethanol, 323.15 K",0.104
same,solubility (mole fraction),"in ethanol, 328.15 K",0.123
same,solubility (mole fraction),"in ethyl acetate, 283.15 K",0.0285
same,solubility (mole fraction),"in ethyl acetate, 288.15 K",0.0323
same,solubility (mole fraction),"in ethyl acetate, 293.15 K",0.0383
same,solubility (mole fraction),"in ethyl acetate, 298.15 K",0.0453
same,solubility (mole fraction),"in ethyl acetate, 303.15 K",0.055
same,solubility (mole fraction),"in ethyl acetate, 308.15 K",0.0651
same,solubility (mole fraction),"in ethyl acetate, 313.15 K",0.0764
same,solubility (mole fraction),"in ethyl acetate, 318.15 K",0.0877
same,solubility (mole fraction),"in ethyl acetate, 323.15 K",0.0979
same,solubility (mole fraction),"in ethyl acetate, 328.15 K",0.11
same,solubility (mole fraction),"in ethylene glycol, 283.15 K",0.0148
same,solubility (mole fraction),"in ethylene glycol, 288.15 K",0.0175
same,solubility (mole fraction),"in ethylene glycol, 293.15 K",0.0208
same,solubility (mole fraction),"in ethylene glycol, 298.15 K",0.0245
same,solubility (mole fraction),"in ethylene glycol, 303.15 K",0.0287
same,solubility (mole fraction),"in ethylene glycol, 308.15 K",0.0337
same,solubility (mole fraction),"in ethylene glycol, 313.15 K",0.0399
same,solubility (mole fraction),"in ethylene glycol, 318.15 K",0.0473
same,solubility (mole fraction),"in ethylene glycol, 323.15 K",0.0561
same,solubility (mole fraction),"in ethylene glycol, 328.15 K",0.0664
same,solubility (mole fraction),"in isobutanol, 283.15 K",0.00864
same,solubility (mole fraction),"in isobutanol, 288.15 K",0.0106
same,solubility (mole fraction),"in isobutanol, 293.15 K",0.0134
same,solubility (mole fraction),"in isobutanol, 298.15 K",0.0169
same,solubility (mole fraction),"in isobutanol, 303.15 K",0.0218
same,solubility (mole fraction),"in isobutanol, 308.15 K",0.0271
same,solubility (mole fraction),"in isobutanol, 313.15 K",0.033
same,solubility (mole fraction),"in isobutanol, 318.15 K",0.0394
same,solubility (mole fraction),"in isobutanol, 323.15 K",0.0465
same,solubility (mole fraction),"in isobutanol, 328.15 K",0.0573
same,solubility (mole fraction),"in isopropanol, 283.15 K",0.0154
same,solubility (mole fraction),"in isopropanol, 288.15 K",0.0182
same,solubility (mole fraction),"in isopropanol, 293.15 K",0.0216
same,solubility (mole fraction),"in isopropanol, 298.15 K",0.0253
same,solubility (mole fraction),"in isopropanol, 303.15 K",0.0302
same,solubility (mole fraction),"in isopropanol, 308.15 K",0.035
same,solubility (mole fraction),"in isopropanol, 313.15 K",0.0414
same,solubility (mole fraction),"in isopropanol, 318.15 K",0.0482
same,solubility (mole fraction),"in isopropanol, 323.15 K",0.0564
same,solubility (mole fraction),"in isopropanol, 328.15 K",0.0665
same,solubility (mole fraction),"in methanol, 283.15 K",0.0409
same,solubility (mole fraction),"in methanol, 288.15 K",0.0455
same,solubility (mole fraction),"in methanol, 293.15 K",0.0521
same,solubility (mole fraction),"in methanol, 298.15 K",0.0584
same,solubility (mole fraction),"in methanol, 303.15 K",0.0673
same,solubility (mole fraction),"in methanol, 308.15 K",0.0769
same,solubility (mole fraction),"in methanol, 313.15 K",0.0887
same,solubility (mole fraction),"in methanol, 318.15 K",0.102
same,solubility (mole fraction),"in methanol, 323.15 K",0.117
same,solubility (mole fraction),"in methanol, 328.15 K",0.134
same,solubility (mole fraction),"in n-butanol, 283.15 K",0.0168
same,solubility (mole fraction),"in n-butanol, 288.15 K",0.0198
same,solubility (mole fraction),"in n-butanol, 293.15 K",0.0233
same,solubility (mole fraction),"in n-butanol, 298.15 K",0.0271
same,solubility (mole fraction),"in n-butanol, 303.15 K",0.0323
same,solubility (mole fraction),"in n-butanol, 308.15 K",0.0382
same,solubility (mole fraction),"in n-butanol, 313.15 K",0.0451
same,solubility (mole fraction),"in n-butanol, 318.15 K",0.0533
same,solubility (mole fraction),"in n-butanol, 323.15 K",0.0618
same,solubility (mole fraction),"in n-butanol, 328.15 K",0.0742
same,solubility (mole fraction),"in n-propanol, 283.15 K",0.0181
same,solubility (mole fraction),"in n-propanol, 288.15 K",0.0219
same,solubility (mole fraction),"in n-propanol, 293.15 K",0.0263
same,solubility (mole fraction),"in n-propanol, 298.15 K",0.0312
same,solubility (mole fraction),"in n-propanol, 303.15 K",0.037
same,solubility (mole fraction),"in n-propanol, 308.15 K",0.0441
same,solubility (mole fraction),"in n-propanol, 313.15 K",0.0533
same,solubility (mole fraction),"in n-propanol, 318.15 K",0.0637
same,solubility (mole fraction),"in n-propanol, 323.15 K",0.0767
same,solubility (mole fraction),"in n-propanol, 328.15 K",0.0934
same,solubility (mole fraction),"in water, 283.15 K",5.33e-05
same,solubility (mole fraction),"in water, 288.15 K",7.8e-05
same,solubility (mole fraction),"in water, 293.15 K",0.000105
same,solubility (mole fraction),"in water, 298.15 K",0.000141
same,solubility (mole fraction),"in water, 303.15 K",0.000185
same,solubility (mole fraction),"in water, 308.15 K",0.000248
same,solubility (mole fraction),"in water, 313.15 K",0.000321
same,solubility (mole fraction),"in water, 318.15 K",0.000426
same,solubility (mole fraction),"in water, 323.15 K",0.000554
same,solubility (mole fraction),"in water, 328.15 K",0.000727
